Measured values taken from US20240393292A1, “ALLERGY ANTIGEN AND EPITOPE THEREOF” (HOYU CO., LTD., priority 2019, published 2024).
Values belong to the substance of their own block, whether it stands above or below them.

Test system: IgE antibodies from patients
Test: Wheat epitope mapping (2): overlapping 10-amino-acid peptide fragments shifted by one amino acid;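 for Rank of partial sequence as epitope binding to IgE antibody: key = sequence deemed particularly important within the common 15-residue sequence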;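 for epitope sequence binding to IgE antibody, rank (Key/Preferably/More preferably): key of grades: preferably = shorter partial sequence still acting as epitope; more preferably = sequence improving IgE binding; key = particularly important sequence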
Assay type: binding, human
Procedure: The peptides to be synthesized were shifted by one amino acid.
The library was prepared by the same procedure as described above in (A), and the presence or absence of binding of an IgE antibody present in the serum of a patient to each peptide fragment was measured by the same technique as described above. Numeric values determined from images obtained as a result of carrying out only the procedures (1) and (4) to (6) described above in the subsection titled (3) Spotting of cellulose-bound peptide solution were used as control values. The control value of each peptide was subtracted from numeric values determined from images obtained from results about the serum of patients, and the obtained value of the difference was compared with values of the peptides serving as the basis of overlapping.
Chemiluminescence intensity in images obtained by measurement was converted into a numeric value in the same manner as in (A). Numeric values determined from images obtained as a result of carrying out only the procedures (1) and (4) to (6) described above in the subsection titled (3) Spotting of cellulose-bound peptide solution (secondary antibody measurement values) were used as control values. The control value of each peptide was subtracted from numeric values determined from images obtained from results about the serum of patients. When values obtained using the sequences (SEQ ID NOs: 29, 131, 191, 281, 346, 414, 493, 562, 640, 706, 776, 899, 974, 1010, 1089, 1142, 1166, 1209, 1257, 1297, 1367, 1403, 1508, 1566, 1598, 1608, 1685, 1753, 1789, 1836, 1895, 1977, 2004, 2027, 2068, 2154, 2217, 2265, 2309, 2342, 2419, 2491, 2545, 2613, 2631, 2674, 2701, 2774, 2809 and 2830) serving as the basis of overlapping were defined as 100%, it was determined that: a peptide having a value of the difference that was less than 30% had no binding activity against IgE antibodies; a peptide having a value of the difference that was 30% or more and less than 50% had binding activity, albeit poor, against IgE antibodies; a peptide having a value of the difference that was 50% or more and less than 70% had binding activity, albeit somewhat poor, against IgE antibodies; and a peptide having a value of the difference that was 70% or more had equivalent or good binding activity against IgE antibodies and was thus a peptide had remaining binding activity against IgE antibodies.

[1] = serum of patient P4 (WDEIA), sequence without X
[2] = serum of patient P35 (WDEIA), sequence without X
[3] = serum of patient P15 (WDEIA), sequence without X
[4] = serum of patient P14 (WDEIA), sequence without X
[5] = serum of patient P26 (WDEIA), sequence without X
[6] = serum of patient P12 (WDEIA), sequence without X
[7] = serum of patient P21 (WDEIA), sequence without X
[8] = serum of patient G9 (adult, general immediate type allergy to wheat), partial sequence
[9] = serum of patient P2 (WDEIA), sequence without X
[10] = serum of patient G5 (adult, general immediate type allergy to wheat), sequence without X
[11] = serum of patient G9 (adult, general immediate type allergy to wheat)
[12] = serum of patient P29 (WDEIA), partial sequence
[13] = serum of patient P36 (WDEIA), sequence without X

Substance: 1371 (QPLPPQQQP; REGION 1..9: note = epitope) [compound 1371]
Epitope sequence binding to IgE antibody, rank of the sequence [1]: Preferably

Substance: 1595 (QPQQPF; REGION 1..6: note = epitope) [compound 1595]
Rank of partial sequence as epitope binding to IgE antibody (serum of patient P52 (child, general immediate type allergy to wheat), sequence without X): More preferably

Substance: 1640 (DKVPFVPISG; REGION 1..10: note = epitope) [compound 1640]
Rank of partial sequence as epitope binding to IgE antibody (serum of patient P34 (WDEIA), sequence without X): Key

Substance: 1430 (YLQPQQPIS; REGION 1..9: note = epitope) [compound 1430]
Rank of partial sequence as epitope binding to IgE antibody [3]: Preferably

Substance: 1688 (KEAA; REGION 1..4: note = epitope) [compound 1688]
Rank of partial sequence as epitope binding to IgE antibody [4]: Key

Substance: 1426 (YLQPQ; REGION 1..5: note = epitope) [compound 1426]
Epitope sequence binding to IgE antibody, rank of the sequence [6]: Key

Substance: 1542 (QVPLVQQQQ; REGION 1..9: note = epitope) [compound 1542]
Rank of partial sequence as epitope binding to IgE antibody [7]: More preferably

Substance: 1538 (LVQQQQFLGQ; REGION 1..10: note = epitope) [compound 1538]
Rank of partial sequence as epitope binding to IgE antibody (serum of patient P17 (WDEIA), sequence without X): Further preferably

Substance: 1623 (YNPD; REGION 1..4: note = epitope) [compound 1623]
Rank of partial sequence as epitope binding to IgE antibody (serum of patient P25 (WDEIA), sequence without X): Key

Substance: 1414 (YLQPQQPISQ; REGION 1..10: note = epitope) [compound 1414]
Epitope sequence binding to IgE antibody, rank of the sequence [1]: Preferably

Substance: 1405 (YLQPQQPISQ; REGION 1..10: note = epitope) [compound 1405]
Epitope sequence binding to IgE antibody, rank of the sequence (Key/Preferably/More preferably/Further preferably) [9]: Key

Substance: 1301 (SINVEN; REGION 1..6: note = epitope) [compound 1301]
Epitope sequence binding to IgE antibody, rank of the sequence (Key/Preferably/More preferably/Further preferably) [9]: Key

Substance: 1677 (PFVPISG; REGION 1..7: note = epitope) [compound 1677]
Rank of partial sequence as epitope binding to IgE antibody [10]: Key

Substance: 1747 (EAANFT; REGION 1..6: note = epitope) [compound 1747]
epitope sequence binding to IgE antibody, rank (Key/Preferably/More preferably) (serum of patient G5 (adult, general immediate type allergy to wheat)): Key

Substance: 1432 (SQQQAQ; REGION 1..6: note = epitope) [compound 1432]
Rank of partial sequence as epitope binding to IgE antibody [3]: Key

Substance: 1676 (KVPFVPISG; REGION 1..9: note = epitope) [compound 1676]
Rank of partial sequence as epitope binding to IgE antibody [10]: Preferably

Substance: 1718 (EAANFT; REGION 1..6: note = epitope) [compound 1718]
epitope sequence binding to IgE antibody, rank (Key/Preferably/More preferably) (serum of patient P36 (WDEIA)): More preferably

Substance: 1648 (FVPISG; REGION 1..6: note = epitope) [compound 1648]
Rank of partial sequence as epitope binding to IgE antibody [13]: Key

Substance: 1429 (YLQPQQ; REGION 1..6: note = epitope) [compound 1429]
Rank of partial sequence as epitope binding to IgE antibody [4]: Key

Substance: 1383 (PPQQQ; REGION 1..5: note = epitope) [compound 1383]
Epitope sequence binding to IgE antibody, rank of the sequence [6]: Key

Substance: 1254 (PIQQQP; REGION 1..6: note = epitope) [compound 1254]
Epitope sequence binding to IgE antibody, rank of the sequence [13]: Key

Substance: 1771 (KVGYNP; REGION 1..6: note = epitope) [compound 1771]
epitope sequence binding to IgE antibody, rank (Key/Preferably/More preferably) (serum of patient P50 (child, general immediate type allergy to wheat)): Key

Results, then the substance that gave them:

Epitope sequence binding to IgE antibody, rank of the sequence (Key/Preferably/More preferably) [2]: Preferably
Substance: 2398 (TEIVL; REGION 1..5: note = epitope) [compound 2398]

epitope sequence binding to IgE antibody, rank (Key/Preferably/More preferably) (serum of patient P9 (WDEIA)): Key
Substance: 1793 (SGKELEALPK; REGION 1..10: note = epitope) [compound 1793]

Epitope sequence binding to IgE antibody, rank of the sequence (serum of patient P51 (child, general immediate type allergy to wheat), partial sequence): Key
Substance: 2515 (SFQPSQ; REGION 1..6: note = epitope) [compound 2515]

Epitope sequence binding to IgE antibody, rank of the sequence (Key/Preferably/More preferably) [5]: Preferably
Substance: 2372 (TEIVL; REGION 1..5: note = epitope) [compound 2372]

epitope sequence binding to IgE antibody, rank (Key/Preferably/More preferably) (serum of patient G3 (adult, general immediate type allergy to wheat)): Key
Substance: 1780 (YLKKVG; REGION 1..6: note = epitope) [compound 1780]

Epitope sequence binding to IgE antibody, rank of the sequence (Key/Preferably/More preferably) [7]: Key
Substance: 2362 (VTEIV; REGION 1..5: note = epitope) [compound 2362]

Epitope sequence binding to IgE antibody, rank of the sequence (Key/Preferably/More preferably/Further preferably) (serum of patient P50 (child, general immediate type allergy to wheat), sequence without X): More preferably
Substance: 2294 (LGGIDKRVIE; REGION 1..10: note = epitope) [compound 2294]

Epitope sequence binding to IgE antibody, rank of the sequence [8]: Key
Substance: 2630 (LASLSK; REGION 1..6: note = epitope) [compound 2630]

Epitope sequence binding to IgE antibody, rank of the sequence (Key/Preferably/More preferably) (serum of patient P18 (WDEIA), sequence without X): Key
Substance: 2282 (IDKRVIER; REGION 1..8: note = epitope) [compound 2282]

Epitope sequence binding to IgE antibody, rank of the sequence (Key/Preferably/More preferably) [5]: Key
Substance: 2287 (KRVIERFEK; REGION 1..9: note = epitope) [compound 2287]

Epitope sequence binding to IgE antibody, rank of the sequence (Key/Preferably/More preferably) (serum of patient P8 (WDEIA), sequence without X): Key
Substance: 2222 (RLLRGIRNY; REGION 1..9: note = epitope) [compound 2222]

epitope sequence binding to IgE antibody, rank (Key/Preferably/More preferably) (serum of patient P3 (WDEIA)): Key
Substance: 1901 (VPLVQ; REGION 1..5: note = epitope) [compound 1901]

epitope sequence binding to IgE antibody, rank (Key/Preferably/More preferably) (serum of patient P33 (WDEIA)): Preferably
Substance: 1965 (QQFPGQQ; REGION 1..7: note = epitope) [compound 1965]

epitope sequence binding to IgE antibody, rank (Key/Preferably/More preferably) [11]: Preferably
Substance: 1893 (YTVRTLQRT; REGION 1..9: note = epitope) [compound 1893]

Epitope sequence binding to IgE antibody, rank of the sequence [12]: Key
Substance: 2578 (YQLVQQL; REGION 1..7: note = epitope) [compound 2578]

Epitope sequence binding to IgE antibody, rank of the sequence (serum of patient P31 (WDEIA), partial sequence): Preferably
Substance: 2739 (YKIGGIG; REGION 1..7: note = epitope) [compound 2739]

epitope sequence binding to IgE antibody, rank (Key/Preferably/More preferably) (serum of patient G7 (adult, general immediate type allergy to wheat)): Key
Substance: 1832 (KELE; REGION 1..4: note = epitope) [compound 1832]

Epitope sequence binding to IgE antibody, rank of the sequence [8]: Key
Substance: 2611 (QSTYQLVQQL; REGION 1..10: note = epitope) [compound 2611]

epitope sequence binding to IgE antibody, rank (Key/Preferably/More preferably) (serum of patient P32 (WDEIA)): Key
Substance: 1879 (TVRTLQ; REGION 1..6: note = epitope) [compound 1879]

Epitope sequence binding to IgE antibody, rank of the sequence (serum of patient P16 (WDEIA), partial sequence): Key
Substance: 2505 (SQVSF; REGION 1..5: note = epitope) [compound 2505]

epitope sequence binding to IgE antibody, rank (Key/Preferably/More preferably) (serum of patient P17 (WDEIA)): More preferably
Substance: 1852 (YTVRTLQRT; REGION 1..9: note = epitope) [compound 1852]

epitope sequence binding to IgE antibody, rank (Key/Preferably/More preferably) (serum of patient P9 (WDEIA)): Key
Substance: 1844 (TVRTLQ; REGION 1..6: note = epitope) [compound 1844]

epitope sequence binding to IgE antibody, rank (Key/Preferably/More preferably) [11]: Key
Substance: 1894 (VRTLQ; REGION 1..5: note = epitope) [compound 1894]

Epitope sequence binding to IgE antibody, rank of the sequence [12]: Key
Substance: 2510 (PSQLNPQ; REGION 1..7: note = epitope) [compound 2510]

epitope sequence binding to IgE antibody, rank (Key/Preferably/More preferably) (serum of patient P16 (WDEIA)): Key
Substance: 1850 (VRTLQ; REGION 1..5: note = epitope) [compound 1850]

Epitope sequence binding to IgE antibody, rank of the sequence (serum of patient P20 (WDEIA), partial sequence): Key
Substance: 2555 (QSTYQLVQQL; REGION 1..10: note = epitope) [compound 2555]

Epitope sequence binding to IgE antibody, rank of the sequence (serum of patient G7 (adult, general immediate type allergy to wheat), partial sequence): Key
Substance: 2672 (RFEKEAAEMN; REGION 1..10: note = epitope) [compound 2672]

Epitope sequence binding to IgE antibody, rank of the sequence (Key/Preferably/More preferably) [2]: Key
Substance: 2399 (TEIV; REGION 1..4: note = epitope) [compound 2399]
